{
  "source": "PubChem BioAssay (NCI)",
  "note": "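Five compound concentrations were applied to cells in 96-well plates for 48 hours; endpoints were derived by simple linear interpolation of the resulting dose-response curve. GI50 = concentration required for 50% inhibition of growth. TGI: total growth inhibition.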",
  "data": [
    {"test_system": "MOLT-4 leukemia", "experiment": "NCI anticancer screen, dose series, 48 h", "units": {"TGI": "µM"}, "values": [
      {"smiles": "CCOP(=O)(OCC)C(F)(F)c1ccc(CC(NC(=O)OC(C)(C)C)C(=O)O)cc1", "note": "(stereo not given)", "TGI": "> 10"},
      {"smiles": "COc1ccc(-c2[nH]c3c4c(nc5c(c24)C(=O)CC(C)(C)C5)CC(C)(C)C3)cc1", "TGI": 94},
      {"smiles": "NC(=O)C(=Cn1c(=S)[nH]c2ccc([N+](=O)[O-])cc21)C(N)=O", "TGI": "> 100"},
      {"smiles": "c1ccc2c3[nH]c(c2c1)=Nc1ccc(cc1)-c1nc2cc(ccc2o1)N=c1[nH]c(c2ccccc12)=Nc1ccc2nc(oc2c1)-c1ccc(cc1)N=3", "TGI": "> 100"},
      {"smiles": "COC(=O)C1=C(C(=O)OC)SC(=C2SCSC3=C2SC(C(=O)OC)=C(C(=O)OC)C32SC3=C(CCCC3)S2)S1", "TGI": "> 100"}
    ]},
    {"test_system": "SF-295 CNS", "experiment": "NCI anticancer screen, dose series, 48 h", "units": {"TGI": "µM"}, "values": [
      {"smiles": "C=CC1(CC/C(=C\\[N+](=O)[O-])c2ccc(OC)c(OC)c2)OCC(C)(C)CO1", "TGI": 53.1},
      {"smiles": "CC1(C(=O)O)CCC2(C)CCC3(C)C(=CC(=O)C4C5(C)CCC(O)C(C)(C)C5CCC43C)C2C1", "note": "(stereo not given)", "TGI": 70.1},
      {"smiles": "COc1cc(S(=O)(=O)Nc2nc(-c3ccc(N4C(=O)C(CC(=O)O)SC4c4cccs4)cc3)cs2)ccc1Cl", "note": "(stereo not given)", "TGI": "> 100"},
      {"smiles": "Oc1ccccc1CNCc1nc2ccccc2[nH]1", "TGI": "> 100"},
      {"smiles": "O=[N+]([O-])c1ccc(Cl)cc1N/N=C/c1ccnc2ccccc12", "TGI": "> 100"},
      {"smiles": "Oc1[nH]c2ccccc2c1N=Nc1nc(-c2ccc(Br)cc2)cs1", "TGI": 67.7},
      {"smiles": "O=C1CCC2(c3ccc(Cl)cc3)Nc3ccncc3N12", "note": "(stereo not given)", "TGI": "> 10"},
      {"smiles": "C(=C(c1ccc(OC2CCCCO2)cc1)c1ccc(OC2CCCCO2)cc1)c1ccccc1", "note": "(stereo not given)", "TGI": 2.51},
      {"smiles": "CC(=O)Oc1cccc2c1C(=O)CCCC2", "TGI": "> 100"},
      {"smiles": "O=C(c1ccccn1)C1(N2CCCCC2)CCCCC1", "TGI": "> 100"},
      {"smiles": "CCN(CC)C(=S)N/N=C/c1cc([N+](=O)[O-])ccc1O", "TGI": "> 100"},
      {"smiles": "Cc1ccc(NC(=O)CC2Sc3ccccc3NC2=O)cc1C", "note": "(stereo not given)", "TGI": "> 100"},
      {"smiles": "CCOP(=O)(OCC)C(F)(F)c1ccc(CC(NC(=O)OC(C)(C)C)C(=O)O)cc1", "note": "(stereo not given)", "TGI": "> 10"},
      {"smiles": "COc1ccc(-c2[nH]c3c4c(nc5c(c24)C(=O)CC(C)(C)C5)CC(C)(C)C3)cc1", "TGI": "> 100"},
      {"smiles": "NC(=O)C(=Cn1c(=S)[nH]c2ccc([N+](=O)[O-])cc21)C(N)=O", "TGI": "> 100"},
      {"smiles": "c1ccc2c3[nH]c(c2c1)=Nc1ccc(cc1)-c1nc2cc(ccc2o1)N=c1[nH]c(c2ccccc12)=Nc1ccc2nc(oc2c1)-c1ccc(cc1)N=3", "TGI": "> 100"},
      {"smiles": "COC(=O)C1=C(C(=O)OC)SC(=C2SCSC3=C2SC(C(=O)OC)=C(C(=O)OC)C32SC3=C(CCCC3)S2)S1", "TGI": "> 100"}
    ]},
    {"test_system": "RPMI-8226 leukemia", "experiment": "NCI anticancer screen, dose series, 48 h", "units": {"GI50": "µM", "TGI": "µM"}, "values": [
      {"smiles": "O=C1c2cc3c(cc2-c2c1c1ccc(F)cc1c(=O)n2C[C@H](O)[C@@H](O)[C@H](O)CO)OCO3", "GI50": 0.422, "TGI": 4.18},
      {"smiles": "Oc1ccccc1CNCc1nc2ccccc2[nH]1", "TGI": 73.1},
      {"smiles": "O=[N+]([O-])c1ccc(Cl)cc1N/N=C/c1ccnc2ccccc12", "TGI": "> 100"},
      {"smiles": "O=C(c1ccccn1)C1(N2CCCCC2)CCCCC1", "TGI": "> 100"},
      {"smiles": "Cc1ccc(NC(=O)CC2Sc3ccccc3NC2=O)cc1C", "note": "(stereo not given)", "TGI": "> 100"}
    ]},
    {"test_system": "EKVX NSCLC", "experiment": "NCI anticancer screen, dose series, 48 h", "units": {"GI50": "µM", "TGI": "µM"}, "values": [
      {"smiles": "O=C1c2cc3c(cc2-c2c1c1ccc(F)cc1c(=O)n2C[C@H](O)[C@@H](O)[C@H](O)CO)OCO3", "GI50": 0.308, "TGI": 3.05},
      {"smiles": "C=CC1(CC/C(=C\\[N+](=O)[O-])c2ccc(OC)c(OC)c2)OCC(C)(C)CO1", "TGI": 40.1},
      {"smiles": "CC1(C(=O)O)CCC2(C)CCC3(C)C(=CC(=O)C4C5(C)CCC(O)C(C)(C)C5CCC43C)C2C1", "note": "(stereo not given)", "TGI": "> 100"},
      {"smiles": "Oc1ccccc1CNCc1nc2ccccc2[nH]1", "TGI": "> 100"},
      {"smiles": "O=[N+]([O-])c1ccc(Cl)cc1N/N=C/c1ccnc2ccccc12", "TGI": "> 100"},
      {"smiles": "Oc1[nH]c2ccccc2c1N=Nc1nc(-c2ccc(Br)cc2)cs1", "TGI": 30.4},
      {"smiles": "O=C1CCC2(c3ccc(Cl)cc3)Nc3ccncc3N12", "note": "(stereo not given)", "TGI": "> 10"},
      {"smiles": "C(=C(c1ccc(OC2CCCCO2)cc1)c1ccc(OC2CCCCO2)cc1)c1ccccc1", "note": "(stereo not given)", "TGI": 1.83},
      {"smiles": "CC(=O)Oc1cccc2c1C(=O)CCCC2", "TGI": "> 100"},
      {"smiles": "O=C(c1ccccn1)C1(N2CCCCC2)CCCCC1", "TGI": "> 100"},
      {"smiles": "CCN(CC)C(=S)N/N=C/c1cc([N+](=O)[O-])ccc1O", "TGI": 78.9},
      {"smiles": "Cc1ccc(NC(=O)CC2Sc3ccccc3NC2=O)cc1C", "note": "(stereo not given)", "TGI": "> 100"},
      {"smiles": "CCOP(=O)(OCC)C(F)(F)c1ccc(CC(NC(=O)OC(C)(C)C)C(=O)O)cc1", "note": "(stereo not given)", "TGI": "> 10"},
      {"smiles": "COc1ccc(-c2[nH]c3c4c(nc5c(c24)C(=O)CC(C)(C)C5)CC(C)(C)C3)cc1", "TGI": "> 100"},
      {"smiles": "NC(=O)C(=Cn1c(=S)[nH]c2ccc([N+](=O)[O-])cc21)C(N)=O", "TGI": "> 100"},
      {"smiles": "c1ccc2c3[nH]c(c2c1)=Nc1ccc(cc1)-c1nc2cc(ccc2o1)N=c1[nH]c(c2ccccc12)=Nc1ccc2nc(oc2c1)-c1ccc(cc1)N=3", "TGI": "> 100"},
      {"smiles": "COC(=O)C1=C(C(=O)OC)SC(=C2SCSC3=C2SC(C(=O)OC)=C(C(=O)OC)C32SC3=C(CCCC3)S2)S1", "TGI": "> 100"}
    ]},
    {"test_system": "NCI/ADR-RES ovarian", "experiment": "NCI anticancer screen, dose series, 48 h", "units": {"TGI": "µM"}, "values": [
      {"smiles": "C=CC1(CC/C(=C\\[N+](=O)[O-])c2ccc(OC)c(OC)c2)OCC(C)(C)CO1", "TGI": 35.5},
      {"smiles": "CC1(C(=O)O)CCC2(C)CCC3(C)C(=CC(=O)C4C5(C)CCC(O)C(C)(C)C5CCC43C)C2C1", "note": "(stereo not given)", "TGI": "> 100"},
      {"smiles": "COc1cc(S(=O)(=O)Nc2nc(-c3ccc(N4C(=O)C(CC(=O)O)SC4c4cccs4)cc3)cs2)ccc1Cl", "note": "(stereo not given)", "TGI": 76.6},
      {"smiles": "Oc1ccccc1CNCc1nc2ccccc2[nH]1", "TGI": 61.5},
      {"smiles": "O=[N+]([O-])c1ccc(Cl)cc1N/N=C/c1ccnc2ccccc12", "TGI": "> 100"},
      {"smiles": "Oc1[nH]c2ccccc2c1N=Nc1nc(-c2ccc(Br)cc2)cs1", "TGI": 44.1},
      {"smiles": "O=C1CCC2(c3ccc(Cl)cc3)Nc3ccncc3N12", "note": "(stereo not given)", "TGI": "> 10"},
      {"smiles": "C(=C(c1ccc(OC2CCCCO2)cc1)c1ccc(OC2CCCCO2)cc1)c1ccccc1", "note": "(stereo not given)", "TGI": 2.92},
      {"smiles": "CC(=O)Oc1cccc2c1C(=O)CCCC2", "TGI": "> 100"},
      {"smiles": "O=C(c1ccccn1)C1(N2CCCCC2)CCCCC1", "TGI": "> 100"},
      {"smiles": "CCN(CC)C(=S)N/N=C/c1cc([N+](=O)[O-])ccc1O", "TGI": 13.9},
      {"smiles": "CCOP(=O)(OCC)C(F)(F)c1ccc(CC(NC(=O)OC(C)(C)C)C(=O)O)cc1", "note": "(stereo not given)", "TGI": "> 10"},
      {"smiles": "COc1ccc(-c2[nH]c3c4c(nc5c(c24)C(=O)CC(C)(C)C5)CC(C)(C)C3)cc1", "TGI": "> 100"},
      {"smiles": "NC(=O)C(=Cn1c(=S)[nH]c2ccc([N+](=O)[O-])cc21)C(N)=O", "TGI": "> 100"},
      {"smiles": "c1ccc2c3[nH]c(c2c1)=Nc1ccc(cc1)-c1nc2cc(ccc2o1)N=c1[nH]c(c2ccccc12)=Nc1ccc2nc(oc2c1)-c1ccc(cc1)N=3", "TGI": "> 100"},
      {"smiles": "COC(=O)C1=C(C(=O)OC)SC(=C2SCSC3=C2SC(C(=O)OC)=C(C(=O)OC)C32SC3=C(CCCC3)S2)S1", "TGI": "> 100"}
    ]},
    {"test_system": "TK-10 renal", "experiment": "NCI anticancer screen, dose series, 48 h", "units": {"GI50": "µM", "TGI": "µM"}, "values": [
      {"smiles": "O=C1c2cc3c(cc2-c2c1c1ccc(F)cc1c(=O)n2C[C@H](O)[C@@H](O)[C@H](O)CO)OCO3", "GI50": 0.262, "TGI": 0.858},
      {"smiles": "C=CC1(CC/C(=C\\[N+](=O)[O-])c2ccc(OC)c(OC)c2)OCC(C)(C)CO1", "TGI": 34.6},
      {"smiles": "CC1(C(=O)O)CCC2(C)CCC3(C)C(=CC(=O)C4C5(C)CCC(O)C(C)(C)C5CCC43C)C2C1", "note": "(stereo not given)", "TGI": "> 100"},
      {"smiles": "COc1cc(S(=O)(=O)Nc2nc(-c3ccc(N4C(=O)C(CC(=O)O)SC4c4cccs4)cc3)cs2)ccc1Cl", "note": "(stereo not given)", "TGI": "> 100"},
      {"smiles": "Oc1ccccc1CNCc1nc2ccccc2[nH]1", "TGI": "> 100"},
      {"smiles": "O=[N+]([O-])c1ccc(Cl)cc1N/N=C/c1ccnc2ccccc12", "TGI": "> 100"},
      {"smiles": "Oc1[nH]c2ccccc2c1N=Nc1nc(-c2ccc(Br)cc2)cs1", "TGI": 61.2},
      {"smiles": "O=C1CCC2(c3ccc(Cl)cc3)Nc3ccncc3N12", "note": "(stereo not given)", "TGI": "> 10"},
      {"smiles": "C(=C(c1ccc(OC2CCCCO2)cc1)c1ccc(OC2CCCCO2)cc1)c1ccccc1", "note": "(stereo not given)", "TGI": 2.35},
      {"smiles": "CC(=O)Oc1cccc2c1C(=O)CCCC2", "TGI": "> 100"},
      {"smiles": "O=C(c1ccccn1)C1(N2CCCCC2)CCCCC1", "TGI": "> 100"},
      {"smiles": "CCN(CC)C(=S)N/N=C/c1cc([N+](=O)[O-])ccc1O", "TGI": 37.1},
      {"smiles": "Cc1ccc(NC(=O)CC2Sc3ccccc3NC2=O)cc1C", "note": "(stereo not given)", "TGI": "> 100"},
      {"smiles": "CCOP(=O)(OCC)C(F)(F)c1ccc(CC(NC(=O)OC(C)(C)C)C(=O)O)cc1", "note": "(stereo not given)", "TGI": "> 10"},
      {"smiles": "COc1ccc(-c2[nH]c3c4c(nc5c(c24)C(=O)CC(C)(C)C5)CC(C)(C)C3)cc1", "TGI": "> 100"},
      {"smiles": "NC(=O)C(=Cn1c(=S)[nH]c2ccc([N+](=O)[O-])cc21)C(N)=O", "TGI": "> 100"},
      {"smiles": "COC(=O)C1=C(C(=O)OC)SC(=C2SCSC3=C2SC(C(=O)OC)=C(C(=O)OC)C32SC3=C(CCCC3)S2)S1", "TGI": "> 100"}
    ]}
  ]
}
